US20260125400A1, “TYK2 DEGRADERS AND USES THEREOF” (Kymera Therapeutics, Inc., priority 2023, published 2026)

The molecules below were run against T1, TYK2 (Homo sapiens, UniProt P29597) (assay: TYK2 MSD degradation in OCI-LY10 cells). Conditions: OCI-LY10 cells, 4 to 24 hours incubation.
T1 construct: Degradation of TYK2 in cells was quantitatively measured using Meso Scale Discovery (MSD) technology; endogenous in cells; host or cells: OCI-LY10
T1 sequence (P29597 whole entry): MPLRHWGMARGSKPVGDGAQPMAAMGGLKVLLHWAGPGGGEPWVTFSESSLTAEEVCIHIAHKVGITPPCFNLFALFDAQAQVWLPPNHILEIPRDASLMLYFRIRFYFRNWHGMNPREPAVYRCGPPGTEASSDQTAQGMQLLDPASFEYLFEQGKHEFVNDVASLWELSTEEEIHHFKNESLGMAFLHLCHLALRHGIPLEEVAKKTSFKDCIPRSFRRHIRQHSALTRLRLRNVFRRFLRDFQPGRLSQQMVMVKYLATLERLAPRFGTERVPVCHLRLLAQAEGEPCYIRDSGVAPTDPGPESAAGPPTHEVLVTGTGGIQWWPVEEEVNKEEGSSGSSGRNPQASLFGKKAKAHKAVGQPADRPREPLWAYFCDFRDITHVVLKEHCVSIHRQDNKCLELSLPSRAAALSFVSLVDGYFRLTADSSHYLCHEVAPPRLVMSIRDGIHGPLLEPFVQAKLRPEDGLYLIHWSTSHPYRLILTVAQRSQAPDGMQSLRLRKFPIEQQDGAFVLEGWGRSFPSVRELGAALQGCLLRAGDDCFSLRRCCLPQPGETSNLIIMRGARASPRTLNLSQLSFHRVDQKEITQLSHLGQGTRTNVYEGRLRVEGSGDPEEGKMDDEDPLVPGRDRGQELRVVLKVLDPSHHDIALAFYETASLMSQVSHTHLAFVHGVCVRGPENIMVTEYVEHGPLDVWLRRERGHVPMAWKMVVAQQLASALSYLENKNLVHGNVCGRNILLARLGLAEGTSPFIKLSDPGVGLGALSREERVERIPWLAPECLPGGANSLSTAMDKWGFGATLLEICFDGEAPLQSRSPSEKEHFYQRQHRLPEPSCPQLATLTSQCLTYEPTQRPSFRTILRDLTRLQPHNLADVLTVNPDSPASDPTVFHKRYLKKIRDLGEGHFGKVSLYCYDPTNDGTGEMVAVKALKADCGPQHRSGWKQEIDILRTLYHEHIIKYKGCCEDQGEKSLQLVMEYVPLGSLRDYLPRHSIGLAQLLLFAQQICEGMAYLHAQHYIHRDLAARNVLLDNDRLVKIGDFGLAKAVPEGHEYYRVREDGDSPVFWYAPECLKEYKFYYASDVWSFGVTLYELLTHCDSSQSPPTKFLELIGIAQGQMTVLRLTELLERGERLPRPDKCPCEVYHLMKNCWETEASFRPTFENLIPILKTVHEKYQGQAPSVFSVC
Type: cell-based
Procedure: Example 7. TYK2 MSD Degradation
Degradation of TYK2 in cells was quantitatively measured using Meso Scale Discovery (MSD) technology. OCI-LY10 cells were seeded in 96-well plates with a density of 0.4 million cells per well in 100 μl fresh media. Compounds were then added to the assay plates with a final top concentration of 1 to 10 μM in a 1:3 dilution series with total of 9 doses. The assay plates were then incubated for 4 to 24 hours at 37° C. under […]. The assay plates were then centrifuged for 5 minutes, and the cell pellets were treated with 100 μl/well RIPA lysis buffer (Boston Bioproducts, BP-115D) with protease and phosphatase inhibitors (Roche, 05892791001 and 04906837001). To prepare MSD assay plates (MSD, L15XA), the plates were coated with the capture antibody (Santa Cruz Biotechnology, SC-5271) in PBS, at 40 μl/well. The plates were then incubated overnight at 4° C., washed 3 times with 150 μl/well TBST buffer (Cell Signaling Technology, 9997S) and blocked with 150 μl/well blocking buffer (MSD, R93BA-4). Cell lysates were then added to MSD assay plates and the plates were incubated at room temperature for 1 hour. The plates were then washed 3 times with 150 μl/well TBST buffer and 25 μl/well primary detection antibody (Cell Signaling Technology, #9312). The assay plates were then incubated at room temperature for 1 hour, washed 3 times with 150 μl/well TBST buffer, and 25 μl/well secondary detection antibody, SULFO-TAG anti-rabbit antibody (MSD, R32AB-1) were added. The assay plates were then incubated at room temperature for 1 hour, washed 3 times with 150 μl/well TB ST buffer, and 150 μl/well MSD reading buffer (MSD, R92TC-2) were added. The plates were then analyzed by an MSD reader. The data was analyzed by GraphPad Prism and the dose dependent TYK2 degradation was fit using the four-parameter inhibitor vs. response nonlinear regression.
The letter codes for TYK2 DC50 include: A (<1 nM); B (i to <10 nM); C (10 to 100 nM); D (>100 nM); and E (not tested). The letter codes for TYK2 Dmax % include: A (>90%); B (90 to >75%); C (75 to 50%); D (<50%); and E (not tested).
`CNc1cc(N2CCc3c(CN4CCC(CN5CCC(N(C)c6ccc(Cl)c(N7CCC(=O)NC7=O)c6)CC5)C(F)(F)C4)cccc32)nn2c(C(=O)N[C@@H]3C[C@@H]3F)cnc12` (stereo partly drawn) [I-751] was tested, and the “TYK2 MSD OCI-LY10 Dmax %” value was “B (B (90 to >75%))”. In the case of `CNc1cc(N2CCc3c(-c4ccc(CN5CCC(N6CCC(CC#Cc7ccc8c(c7)n(C)c(=O)n8C7CCC(=O)NC7=O)CC6)C(F)(F)C5)cn4)cccc32)nn2c(C(=O)N[C@@H]3C[C@@H]3F)cnc12` (stereo partly drawn) [I-469], the “TYK2 MSD OCI-LY10 Dmax %” value is reported as “B (B (90 to >75%))”. In the case of `CNc1cc(N2CCc3c(CN4CCC(N5CC(C6CCN(C(=O)c7ccc(Cl)c(N8CCC(=O)NC8=O)c7)CC6)C5)C(F)(F)C4)cccc32)nn2c(C(=O)N[C@@H]3C[C@@H]3F)cnc12` (stereo partly drawn) [I-791], the “TYK2 MSD OCI-LY10 Dmax %” value is reported as “A (A (>90%))”. For `CNc1cc(N2CCc3c(N4CC(CN5CCC(N6CCN(C(=O)c7ccc(Cl)c(N8CCC(=O)NC8=O)c7)CC6)C(F)(F)C5)C4)cccc32)nn2c(C(=O)N[C@@H]3C[C@@H]3F)cnc12` (stereo partly drawn) [I-781], the “TYK2 MSD OCI-LY10 Dmax %” value was “D (D (<50%))”.

Same assay, conditions: OCI-LY10 cells, 4 to 24 hours incubation, read-out: TYK2 MSD OCI-LY10 Rel-DC50
With `CNc1cc(N2CCc3c(CN4CCC(CN5CCC(N(C)c6ccc(Cl)c(N7CCC(=O)NC7=O)c6)CC5)C(F)(F)C4)cccc32)nn2c(C(=O)N[C@@H]3C[C@@H]3F)cnc12` (stereo partly drawn) [I-751] the DC50 was < 10 nM. With `CNc1cc(N2CCc3c(-c4ccc(CN5CCC(N6CCC(CC#Cc7ccc8c(c7)n(C)c(=O)n8C7CCC(=O)NC7=O)CC6)C(F)(F)C5)cn4)cccc32)nn2c(C(=O)N[C@@H]3C[C@@H]3F)cnc12` (stereo partly drawn) [I-469] the DC50 was < 10 nM. In the case of `CNc1cc(N2CCc3c(CN4CCC(N5CC(C6CCN(C(=O)c7ccc(Cl)c(N8CCC(=O)NC8=O)c7)CC6)C5)C(F)(F)C4)cccc32)nn2c(C(=O)N[C@@H]3C[C@@H]3F)cnc12` (stereo partly drawn) [I-791], the DC50 is reported as < 1 nM. For `CNc1cc(N2CCc3c(N4CC(CN5CCC(N6CCN(C(=O)c7ccc(Cl)c(N8CCC(=O)NC8=O)c7)CC6)C(F)(F)C5)C4)cccc32)nn2c(C(=O)N[C@@H]3C[C@@H]3F)cnc12` (stereo partly drawn) [I-781], the DC50 was > 100 nM.

Same assay, conditions: TYK2 degradation in OCI-LY10 cells, 4 to 24 hours incubation
With `CNc1cc(N2CCc3c(C4CCN(CC5CCC6(CC5)CCN(C(=O)c5ccc(Cl)c(N7CCC(=O)NC7=O)c5)CC6)CC4)cccc32)nn2c(C(=O)NC3CC3)cnc12` [I-56] the “TYK2 MSD OCI-LY10 Dmax %” value was “C (C (75 to 50%))”. In the case of `CNc1cc(N2CCc3c(N4CCN(C5CCN(C6CCN(C(=O)c7ccc(Cl)c(N8CCC(=O)NC8=O)c7)CC6)CC5)CC4)cccc32)nn2c(C(=O)N[C@@H]3C[C@@H]3F)cnc12` [I-287], the “TYK2 MSD OCI-LY10 Dmax %” value is reported as “D (D (<50%))”. In the case of `CNc1cc(N2CCc3c(-c4ccc(CN5CCC6(CCC(COc7ccc(N8CCC(=O)NC8=O)c(Cl)c7)CC6)CC5)cn4)cccc32)nn2c(C(=O)N[C@@H]3C[C@@H]3F)cnc12` [I-339], the “TYK2 MSD OCI-LY10 Dmax %” value is reported as “D (D (<50%))”. In the case of `CNc1cc(N2CCc3c(-c4ccc(CN5CC6(CCN(C(=O)c7cc(C)c(Cl)c(N8CCC(=O)NC8=O)c7)CC6(F)F)C5)cn4)cccc32)nn2c(C(=O)NC(C)c3ncco3)cnc12` (stereo not drawn) [I-1072], the “TYK2 MSD OCI-LY10 Dmax %” value is reported as “B (B (90 to >75%))”. With `CNc1cc(-c2ccc(-c3ccc(CN4CC5(CCN(C(=O)c6ccc(Cl)c(N7CCC(=O)NC7=O)c6)CC5(F)F)C4)cn3)cc2)nn2c(C(=O)N[C@@H]3C[C@@H]3F)cnc12` [I-880] the “TYK2 MSD OCI-LY10 Dmax %” value was “B (B (90 to >75%))”. For `CNc1cc(N2CCc3c(C#CCN4CCC5(CCN(C(=O)c6ccc(Cl)c(N7CCC(=O)NC7=O)c6)CC5)C(F)(F)C4)cccc32)nn2c(C(=O)N[C@@H]3C[C@@H]3F)cnc12` [I-242], the “TYK2 MSD OCI-LY10 Dmax %” value was “C (C (75 to 50%))”. In the case of `CNc1cc(N2CCc3c(-c4ccc(CN5CCC(N6CCN(c7ccc8c(c7F)n(C)c(=O)n8C7CCC(=O)NC7=O)CC6)C(F)(F)C5)cn4)cccc32)nn2c(C(=O)NC3CC3)cnc12` (stereo not drawn) [I-69], the “TYK2 MSD OCI-LY10 Dmax %” value is reported as “B (B (90 to >75%))”. In the case of `CNc1cc(N2CCc3c(-c4ccc(CN5CCC6(CC5)CCN(Cc5ccc(Cl)c(N7CCC(=O)NC7=O)c5)CC6)cn4)cccc32)nn2c(C(=O)N[C@@H]3C[C@@H]3F)cnc12` [I-95], the “TYK2 MSD OCI-LY10 Dmax %” value is reported as “D (D (<50%))”. In the case of `CNc1cc(N2CCc3c(-c4ncc(CN5CC6(CCN(C(=O)c7cc(C)c(Cl)c(N8CCC(=O)NC8=O)c7)CC6(F)F)C5)cc4F)cc(F)cc32)nn2c(C(=O)N[C@@H]3C[C@@H]3F)cnc12` [I-946], the “TYK2 MSD OCI-LY10 Dmax %” value is reported as “A (A (>90%))”. For `CNc1cc(N2CCc3c(-c4ccc(OC5CC6(CCN(C(=O)c7ccc(Cl)c(N8CCC(=O)NC8=O)c7)CC6)C5)cn4)cccc32)nn2c(C(=O)N[C@@H]3C[C@@H]3F)cnc12` [I-76], the “TYK2 MSD OCI-LY10 Dmax %” value was “B (B (90 to >75%))”. With `CNc1cc(N2CCc3c(-c4ccc(CN5CC6(CCN(C(=O)c7ccc(C(F)(F)F)c(N8CCC(=O)NC8=O)c7)CC6(F)F)C5)cn4)cccc32)nn2c(C(=O)N[C@@H]3C[C@@H]3F)cnc12` [I-969] the “TYK2 MSD OCI-LY10 Dmax %” value was “C (C (75 to 50%))”.

Same assay, conditions: TYK2 degradation in OCI-LY10 cells, 4 to 24 hours incubation, read-out: TYK2 MSD OCI-LY10 Rel-DC50
With `CNc1cc(N2CCc3c(C4CCN(CC5CCC6(CC5)CCN(C(=O)c5ccc(Cl)c(N7CCC(=O)NC7=O)c5)CC6)CC4)cccc32)nn2c(C(=O)NC3CC3)cnc12` [I-56] the DC50 was < 10 nM. In the case of `CNc1cc(N2CCc3c(N4CCN(C5CCN(C6CCN(C(=O)c7ccc(Cl)c(N8CCC(=O)NC8=O)c7)CC6)CC5)CC4)cccc32)nn2c(C(=O)N[C@@H]3C[C@@H]3F)cnc12` [I-287], the DC50 is reported as > 100 nM. For `CNc1cc(N2CCc3c(-c4ccc(CN5CCC6(CCC(COc7ccc(N8CCC(=O)NC8=O)c(Cl)c7)CC6)CC5)cn4)cccc32)nn2c(C(=O)N[C@@H]3C[C@@H]3F)cnc12` [I-339], the DC50 was < 10 nM. With `CNc1cc(N2CCc3c(-c4ccc(CN5CC6(CCN(C(=O)c7cc(C)c(Cl)c(N8CCC(=O)NC8=O)c7)CC6(F)F)C5)cn4)cccc32)nn2c(C(=O)NC(C)c3ncco3)cnc12` (stereo not drawn) [I-1072] the DC50 was < 10 nM. With `CNc1cc(-c2ccc(-c3ccc(CN4CC5(CCN(C(=O)c6ccc(Cl)c(N7CCC(=O)NC7=O)c6)CC5(F)F)C4)cn3)cc2)nn2c(C(=O)N[C@@H]3C[C@@H]3F)cnc12` [I-880] the DC50 was < 10 nM. For `CNc1cc(N2CCc3c(C#CCN4CCC5(CCN(C(=O)c6ccc(Cl)c(N7CCC(=O)NC7=O)c6)CC5)C(F)(F)C4)cccc32)nn2c(C(=O)N[C@@H]3C[C@@H]3F)cnc12` [I-242], the DC50 was < 10 nM. `CNc1cc(N2CCc3c(-c4ccc(CN5CCC(N6CCN(c7ccc8c(c7F)n(C)c(=O)n8C7CCC(=O)NC7=O)CC6)C(F)(F)C5)cn4)cccc32)nn2c(C(=O)NC3CC3)cnc12` (stereo not drawn) [I-69] was tested, and the DC50 was < 10 nM. For `CNc1cc(N2CCc3c(-c4ccc(CN5CCC6(CC5)CCN(Cc5ccc(Cl)c(N7CCC(=O)NC7=O)c5)CC6)cn4)cccc32)nn2c(C(=O)N[C@@H]3C[C@@H]3F)cnc12` [I-95], the DC50 was > 100 nM. For `CNc1cc(N2CCc3c(-c4ncc(CN5CC6(CCN(C(=O)c7cc(C)c(Cl)c(N8CCC(=O)NC8=O)c7)CC6(F)F)C5)cc4F)cc(F)cc32)nn2c(C(=O)N[C@@H]3C[C@@H]3F)cnc12` [I-946], the DC50 was < 1 nM. For `CNc1cc(N2CCc3c(-c4ccc(OC5CC6(CCN(C(=O)c7ccc(Cl)c(N8CCC(=O)NC8=O)c7)CC6)C5)cn4)cccc32)nn2c(C(=O)N[C@@H]3C[C@@H]3F)cnc12` [I-76], the DC50 was < 1 nM. In the case of `CNc1cc(N2CCc3c(-c4ccc(CN5CC6(CCN(C(=O)c7ccc(C(F)(F)F)c(N8CCC(=O)NC8=O)c7)CC6(F)F)C5)cn4)cccc32)nn2c(C(=O)N[C@@H]3C[C@@H]3F)cnc12` [I-969], the DC50 is reported as < 10 nM.
